Patent US7268159B2, “Substituted indoles” (Wyeth, priority 2003, dated 2007)

Key:
[1] = biological target: T1, recombinant human plasminogen activator inhibitor-1 (PAI-1) (Homo sapiens, UniProt P05121); assay: Primary screen for the PAI-1 inhibition (residual tPA activity, Spectrozyme-tPA chromogenic substrate); type: biochemical; conditions: 140 nM PAI-1, 70 nM tPA, pH 6.6; for inhibition at 10 µM: 10 μM test compound; for inhibition at 25 µM: 25 μM test compound
T1 construct: purchased Molecular Innovations, Royal Oak, Mich
T1 sequence (P05121 24-402): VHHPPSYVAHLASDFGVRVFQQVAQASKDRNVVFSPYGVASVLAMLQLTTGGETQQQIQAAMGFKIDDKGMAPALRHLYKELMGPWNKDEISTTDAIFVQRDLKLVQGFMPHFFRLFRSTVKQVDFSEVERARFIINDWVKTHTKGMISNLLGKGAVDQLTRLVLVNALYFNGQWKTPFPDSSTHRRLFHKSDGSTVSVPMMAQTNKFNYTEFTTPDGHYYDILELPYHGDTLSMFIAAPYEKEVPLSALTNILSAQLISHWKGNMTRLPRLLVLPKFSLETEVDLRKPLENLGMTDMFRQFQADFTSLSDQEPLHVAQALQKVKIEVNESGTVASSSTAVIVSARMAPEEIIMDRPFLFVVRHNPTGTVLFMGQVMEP
Description: Test compounds are dissolved in DMSO at a final concentration of 10 mM, then diluted 100× in physiologic buffer. The inhibitory assay is initiated by the addition of the test compound (1-100 μM final concentration, maximun DMSO concentration of 0.2%) in a pH 6.6 buffer containing 140 nM recombinant human plasminogen activator inhibitor-1 (PAI-1; Molecular Innovations, Royal Oak, Mich.). Following a 1 hour incubation at room temperature, 70 nM of recombinant human tissue plasminogen activator (tPA) is added, and the combination of the test compound, PAI-1 and tPA is incubated for an additional 30 minutes. Following the second incubation, Spectrozyme-tPA (American Diagnostica, Greenwich, Conn.), a chromogenic substrate for tPA, is added and absorbance read at 405 nm at 0 and 60 minutes. Relative PAI-1 inhibition is equal to the residual tPA activity in the presence of the test compound and PAI-1. Control treatments include the complete inhibition of tPA by PAI-1 at the molar ratio employed (2:1), and the absence of any effect of the test compound on tPA alone.

human PAI-1 = human PAI-1 (Homo sapiens, UniProt P05121); assay: Assay for determining IC50 of inhibition of PAI-1 (active PAI-1 bound to tPA-coated plate, antibody detection); type: binding; conditions: human PAI-1 50 ng/ml, pH 7.5
Chain of human PAI-1 (P05121 24-402): as above
Description: This assay is based upon the non-SDS dissociable interaction between tPA and active PAI-1. Assay plates are initially coated with human tPA (10 μg/ml). Test compounds of the present invention are dissolved in DMSO at 10 mM, then diluted with physiologic buffer (pH 7.5) to a final concentration of 1-50 μM. Test compounds are incubated with human PAI-1 (50 ng/ml) for 15 minutes at room temperature. The tPA-coated plate is washed with a solution of 0.05% Tween 20 and 0.1% BSA, then the plate is blocked with a solution of 3% BSA. An aliquot of the substituted indole/PAI-1 solution is then added to the tPA-coated plate, incubated at room temperature for 1 hour, and washed. Active PAI-1 bound to the plate is assessed by adding an aliquot of a 1:1000 dilution of the 33B8 monoclonal antibody against human PAI-1, and incubating the plate at room temperature for 1 hour (Molecular Innovations, Royal Oak, Mich.) The plate is again washed, and a solution of goat anti-mouse IgG-alkaline phosphatase conjugate is added at a 1:50,000 dilution in goat serum. […] The plate is incubated 45 minutes at room temperature, and color development is determined at OD405 nm. The quantitation of active PAI-1 bound to tPA at varying concentrations of the test compound is used to determine the IC50. Results are analyzed using a logarithmic best-fit equation. […]

| SMILES | inhibition at 10 µM [1] [%] | inhibition at 25 µM [1] [%] | IC50 (human PAI-1) [µM] |
| --- | --- | --- | --- |
| O=C(O)c1cc2ccccc2n1-c1ccc(NS(=O)(=O)c2ccc(OC(F)(F)F)cc2)cc1 [Compound 1, 1-[4-({[4-(trifluoromethoxy)phenyl]sulfonyl}amino)phenyl]-1H-indole-2-carboxylic acid] | 39 | 40 | – |
| O=C(O)c1cc2ccccc2n1-c1ccc(-n2cccc2)cc1 [Compound 2, 1-[4-(1H-pyrrol-1-yl)phenyl]-1H-indole-2-carboxylic acid] | 15 | 35 | – |
| O=C(O)c1cc2ccccc2n1Cc1ccc(NS(=O)(=O)c2ccc(-c3ccccc3)cc2)cc1 [Compound 3, 1-{4-[(1,1′-biphenyl-4-ylsulfonyl)amino]benzyl}-1H-indole-2-carboxylic acid] | – | 66 | – |
| CC(C)(C)c1ccc(S(=O)(=O)Nc2ccc(Cn3ccc4cc(C(=O)O)ccc43)cc2)cc1 [Compound 4, 1-(4-{[(4-tert-butylphenyl)sulfonyl]amino}benzyl)-1H-indole-5-carboxylic acid] | – | 27 | – |
| O=C(O)c1ccc2c(ccn2Cc2ccc(NS(=O)(=O)c3ccc(-c4ccccc4)cc3)cc2)c1 [Compound 5, 1-{4-[(1,1′-biphenyl-4-ylsulfonyl)amino]benzyl}-1H-indole-5-carboxylic acid] | – | 22 | – |
| CC(C)(C)c1ccc(S(=O)(=O)Nc2ccc(Cn3cc(C(=O)O)c4ccccc43)cc2)cc1 [Compound 6, 1-(4-{[(4-tert-butylphenyl)sulfonyl]amino}benzyl)-1H-indole-3-carboxylic acid] | 19 | 28 | – |
| O=C(O)c1cn(Cc2ccc(NS(=O)(=O)c3ccc(-c4ccccc4)cc3)cc2)c2ccccc12 [Compound 7, 1-{4-[(1,1′-biphenyl-4-ylsulfonyl)amino]benzyl}-1H-indole-3-carboxylic acid] | 25 | 27 | – |
| CC(C)(C)c1ccc(S(=O)(=O)Nc2ccc(Cn3ccc4c(C(=O)O)cccc43)cc2)cc1 [Compound 8, 1-(4-{[(4-tert-butylphenyl)sulfonyl]amino}benzyl)-1H-indole-4-carboxylic acid] | 27 | 47 | – |

Results, then the molecule that gave them:

| inhibition at 10 µM [1] [%] | inhibition at 25 µM [1] [%] | IC50 (human PAI-1) [µM] | SMILES |
| --- | --- | --- | --- |
| 26 | 35 | – | O=C(O)c1cccc2c1ccn2Cc1ccc(NS(=O)(=O)c2ccc(-c3ccccc3)cc2)cc1 [Compound 9, 1-{4-[(1,1′-biphenyl-4-ylsulfonyl)amino]benzyl}-1H-indole-4-carboxylic acid] |
| 26 | 30 | – | O=C(O)c1ccc2ccn(Cc3ccc(NS(=O)(=O)c4ccc(-c5ccccc5)cc4)cc3)c2c1 [Compound 10, 1-{4-[(1,1′-biphenyl-4-ylsulfonyl)amino]benzyl}-1H-indole-6-carboxylic acid] |
| 51 | 71 | – | O=C(O)c1c(-c2ccccc2)c2ccccc2n1Cc1ccc(NS(=O)(=O)c2ccccc2)cc1 [Compound 11, 3-phenyl-1-{4-[(phenylsulfonyl)amino]benzyl}-1H-indole-2-carboxylic acid] |
| 42 | 49 | – | CS(=O)(=O)Nc1ccc(Cn2c(C(=O)O)c(-c3ccccc3)c3ccccc32)cc1 [Compound 12, 1-{4-[(methylsulfonyl)amino]benzyl}-3-phenyl-1H-indole-2-carboxylic acid] |
| 50 | 79 | – | O=C(O)c1c(-c2cccs2)c2ccccc2n1Cc1ccc(NS(=O)(=O)c2ccccc2)cc1 [Compound 13, 1-{4-[(phenylsulfonyl)amino]benzyl}-3-thien-2-yl-1H-indole-2-carboxylic acid] |
| 45 | 53 | – | CS(=O)(=O)Nc1ccc(Cn2c(C(=O)O)c(-c3cccs3)c3ccccc32)cc1 [Compound 14, 1-{4-[(methylsulfonyl)amino]benzyl}-3-thien-2-yl-1H-indole-2-carboxylic acid] |
| 53 | 69 | 2.51 | Cc1ccc(C)n1-c1ccc(Cn2c(C(=O)O)c(-c3ccccc3)c3ccccc32)cc1 [Compound 15, 1-[4-(2,5-dimethyl-1H-pyrrol-1-yl)benzyl]-3-phenyl-1H-indole-2-carboxylic acid] |
| 26 | 32 | – | O=C(O)c1c(-c2ccccc2)c2ccccc2n1Cc1ccc(Nc2ccccc2)cc1 [Compound 16, 1-(4-anilinobenzyl)-3-phenyl-1H-indole-2-carboxylic acid] |
| 25 | 35 | – | O=C(O)c1c(-c2cccs2)c2ccccc2n1Cc1ccc(Nc2ccccc2)cc1 [Compound 17, 1-(4-anilinobenzyl)-3-thien-2-yl-1H-indole-2-carboxylic acid] |
